pIC50: −log10 of the molar value. Blank lines part the entries; values can stand above or below the molecule they belong to.
Columns and labels:
[1] = test system: PDE1; assay: PDE1 inhibition assay; assay type: biochemical
Method: Reactions were initiated by addition of the cyclic nucleotide substrate, and reactions were allowed to proceed for 1 h at room temperature before being terminated through mixing with 20 μL (0.2 mg) yttrium silicate SPA beads (PerkinElmer).

[2] = test system: C57Bl/6J mice; assay: Locomotor activity and contextual fear conditioning in C57Bl/6J mice; assay type: in vivo; settings: gavage, 5 days
Method: The exposure of both compounds was also evaluated in the plasma, brain, and eye. […] During the treatment period all animals were assessed for contextual fear conditioning and a subset of 7 animals per group was evaluated for locomotor activity. On Day 5, plasma, brain, and eye tissue were collected 30 minutes after dosing from 3 animals per treated group to measure concentrations of test item.

[3] = test system: K562 erythroleukemic cells; assay: HbF in cultured K562 cells; assay type: cell-based; settings: 3 days
Method: K562 cells were cultured at 37° C. in IMDM® to which the required concentrations of test items or DMSO (negative control) had been added. Plated cells were maintained at 37° C. for 3 days at the end of which the presence of HbF within cells was detected by flow cytometry.

[4] = test system: TNF-α activated human endothelial cells; assay: Micro-channel PMN adhesion assay under flow (FIG. 9); assay type: cell-based
Description: In this study, the effects of Compound P3.1 on PMN adhesion to TNF-α activated human endothelial cell monolayers under flow conditions are investigated. It has been validated in vitro dynamic assay mimics neutrophil recruitment to endothelial cell monolayers under inflammatory conditions (TNF-α activation). In this assay, both control and sickle PMNs adhere to endothelial cells but to different degrees, reflecting in vivo conditions. The human dermal microvascular endothelial cell line HMEC-1 is used in this approach. The potential inhibitory effect of Compound P3.1 is tested in parallel and compared with the effect of HU and other PDE9 inhibitors.
In a first step, the effects of 1 uM Compound P3.1 and 10 uM HU were tested by incubating blood samples from healthy volunteers (n=3-6) (i.e., donors or donor cells) with these molecules.
Adhesion of PMNs from healthy volunteers was assessed under flow conditions, mimicking blood flow, in micro channels (Venaflux, Cellix, Ireland) coated with endothelial cell monolayers cultivated under inflammatory conditions. The adhesion assay was performed with whole fresh blood, previously incubated or not with Compound P3.1, to be closer to the physiological condition of circulation in a person, and to study the interaction between the different blood cells with PMNs.

[5] = test system: HbSS-Townes mice; assay: Microvascular stasis and hematology in HbSS-Townes mice; assay type: in vivo
Method: The ability of Compound P3.1 to reduce vaso-occulsion was assessed in HbSS-Townes transgenic sickle mice after transient hypoxia and re-oxygenation. This study assessed the effects of repeated (10 days) oral dosing of Compound P3.1 and HU on microvascular stasis and other hematological markers of sickle cell disease, after transient hypoxia and re-oxygenation, in Townes transgenic sickle mice, a mouse model of sickle cell disease (Hba^tm1(HBA)Tow Hbb^tm2(HBG1,HBB*)Tow/Hbb^tm3(HBG1,HBB)Tow/J). HbSS-Townes mice were divided into groups of 3 mice and were then dosed orally via drinking water with Compound P3.1 at 10 mg/kg/day, Compound P3.1 at 30 mg/kg/day, HU (100 mg/kg/day), or a combination of Compound P3.1 and HU (at doses of 30 and 100 mg/kg/day, respectively) for 10 days. A final group received water containing 0.08% methylcellulose, the vehicle used to prepare the test items, and served as controls. On Day 7 of treatment, the mice were implanted with dorsal skin-fold chambers (DSFC), and on Day 10 of treatment, 20-23 flowing subcutaneous venules in the DSFC window were selected and mapped. After venule selection and mapping, mice were placed in a chamber and exposed to a hypoxic atmosphere (7% O2/93% N2) for 1 hour, after which they were returned to room air. All of the selected venules were re-examined after 1 and 4 hours of re-oxygenation in room air and the number of static (no flow) venules was counted and expressed as percent stasis. On completion of these measurements, blood was collected for clinical pathology with a focus on hematological measures associated with sickle cell disease.

[6] = test system: Berkeley sickle cell transgenic mice; assay: HbF positive and sickled red blood cells in Berkeley sickle cell transgenic mice; assay type: in vivo; settings: 30 mg/kg/day Compound P3.1 or 100 mg/kg/day HU, gavage, 30 days
Method: This study assessed the effects of chronic dosing (30 day) of Compound P3.1 and HU on HbF and cell sickling in a mouse model of sickle cell disease. Berkeley sickle cell transgenic mice (Hbatm1PazHbbtm1Tow Tg(HBA-HBBs)41Paz/J) were divided into groups of 7 to 8 animals and were dosed once daily, by gavage, for 30 days with either vehicle (PEG:water), 30 mg/kg/day of Compound P3.1, or 100 mg/kg/day of HU. This mouse genotype mimics the genetic, hematologic and histopathologic features that are found in humans afflicted with sickle cell anemia, including irreversibly sickled RBCs, anemia and multi-organ pathology. Blood was collected from treated animals on Day 30 for limited routine hematology as well as derivation of the percent of sickled and HbF positive RBCs and total bilirubin. At termination, the spleen was removed and weighed.

[7] = test system: TNF-α activated endothelium; assay: Micro-channel assay of platelet, PMN and RBC binding (FIG. 10); assay type: cell-based, human; settings: Compound P3.1 2 or 3 hours, HU 3 hours; bound cells at 30 min
Method: In another assay, using the same method, the reduction of PMN and RBC bindings to TNF-α activated endothelium in a micro channel well was confirmed. Platelet, PMN, and RBC in blood samples from 5 healthy normal volunteers (donors) were labelled with fluorescent dyes. The blood samples were incubated with Compound P3.1 for 2 hours or 3 hours, or HU for 3 hours, prior to running them on micro channels that were previously coated with endothelial cells activated with TNF-α. The % of bound cells was quantified at 30 min. Results are shown in FIG. 10A, FIG. 10B, and FIG. 10C.

[8] = test system: K562 erythroleukemic cells; assay: cGMP in cultured K562 cells; assay type: cell-based; settings: 16 hours
Method: Hydroxyurea was included as a comparator as it is currently the only FDA approved treatment for this disease (Charache et al., N Engl J Med., 332(20):1317-22. (1995)). One of the proposed mechanisms of action of HU in SCD is that it may generate NO and modulation of intracellular levels of the NO second messenger, cGMP, may represent an effective and cell-specific approach for amplifying intracellular NO-dependent signaling.
K562 cells were cultured at 37° C. in IMDM® to which the required concentrations of test items or dimethyl sulfoxide (DMSO; negative Control) had been added. Plated cells were maintained at 37° C. for 16 hours at the end of which the amount of cGMP was detected by enzyme immunoassay.

[9] = test system: CD34+ derived red blood cells from SCD subjects; settings: 5 days
[10] = Compound P3.1 30 mg/kg/day, HU 100 mg/kg/day, or both, 10 days

- pIC50 [1]: 5.60
- conditioned freezing vs vehicle controls ([2]; 30 mg/kg/day): not observed
Structure (SMILES): C[C@@H]1CN(Cc2ncccn2)C[C@H]1c1nc2c(cnn2C2CCOCC2)c(=O)[nH]1 (single isomer, unassigned) [AF27873]
- conditioned freezing vs vehicle controls ([2]; 10 mg/kg/day): significantly (p<0.05) more conditioned freezing

Structure (SMILES): NC(=O)NO [Hydroxyurea, reference compound]
- HbF positive cells ([3]; 100 μM): 92.6%
- effect on HbF-positive cells by concentration [3]: statistically significant increases in HbF-positive cells at concentrations of 10 μM and above (but not at 1 and 3 μM)
- adhesion of high-binding donor cells ([4]; 1 uM Compound P3.1 or 10 uM HU, whole blood of healthy volunteers): reduced the binding of 2 of 3 of the high binding donors
- toxicity to donor samples ([4]; 10 uM HU): 3 of 9 of the donor samples did not survive HU treatment
- microvascular stasis ([5]; 30 mg/kg/day Compound P3.1 or 100 mg/kg HU, drinking water, 10 days, 1 and 4 hours post hypoxia): statistically significant reductions in stasis
- total WBC numbers ([5]; Compound P3.1 30 mg/kg/day or HU 100 mg/kg/day, 10 days): reduce total WBC numbers
- vessel occlusion induced by transient hypoxia and re-oxygenation ([5]; Compound P3.1 30 mg/kg/day, HU 100 mg/kg/day, or both): effectively reduced
- number of HbF positive red cells [5, 10]: increase the number of HbF positive red cells
- proportion of sickled RBCs [5, 10]: reduce the proportion of sickled RBCs
- RBC count, hemoglobin concentration or hematocrit [6]: not associated with any apparent alterations
- neutrophil levels [6]: reduced neutrophil levels
- spleen weight [6]: statistically significant decreases
- total bilirubin [6]: statistically significant decreases
- total leucocyte count [6]: statistically significant decreases
- percentage of HbF positive RBCs ([6]; vs controls): increases in the percentage of HbF positive RBCs
- percentage of sickled RBCs ([6]; vs controls): statistically significant decreases in the percentage of sickled RBCs
- platelet binding [7]: did not impact platelet binding
- effect on cGMP levels [8]: dose-dependent and statistically significant increases in cGMP levels
- amount of HbF within cells (mean MFI) ([9]; 30 μM HU, remaining 3 subjects): 19,383
- mean MFI of HbF relative to controls ([9]; 30 μM HU, remaining 3 subjects): 258%
- percentage of HbF positive CD36+ cells (mean) ([9]; 30 μM HU, remaining 3 subjects): 23.9%
- cell death ([9]; human, 30 μM): greater than 80%
- viability ([9]; human, 30 μM): < 80%

— patent US20190307754A1, “PDE9 INHIBITORS FOR TREATMENT OF PERIPHERAL DISEASES” (IMARA, INC., priority 2016, published 2019)
